Our source for the Ki values is patent publication US20110021565A1, “PIPERIDINE DERIVATIVES AS NK3 ANTAGONISTS” (priority 2007, published 2011).

pKi: −log10 of the molar value. Where two headings read alike, the source gives them in different places.

This assay deals with T1, recombinant human NK3 receptor (Homo sapiens, UniProt P29371).
T1 construct: expressed in transfected cells; host or cells: HEK293 cells, transient expression; membrane preparation
T1 sequence (P29371 1-465): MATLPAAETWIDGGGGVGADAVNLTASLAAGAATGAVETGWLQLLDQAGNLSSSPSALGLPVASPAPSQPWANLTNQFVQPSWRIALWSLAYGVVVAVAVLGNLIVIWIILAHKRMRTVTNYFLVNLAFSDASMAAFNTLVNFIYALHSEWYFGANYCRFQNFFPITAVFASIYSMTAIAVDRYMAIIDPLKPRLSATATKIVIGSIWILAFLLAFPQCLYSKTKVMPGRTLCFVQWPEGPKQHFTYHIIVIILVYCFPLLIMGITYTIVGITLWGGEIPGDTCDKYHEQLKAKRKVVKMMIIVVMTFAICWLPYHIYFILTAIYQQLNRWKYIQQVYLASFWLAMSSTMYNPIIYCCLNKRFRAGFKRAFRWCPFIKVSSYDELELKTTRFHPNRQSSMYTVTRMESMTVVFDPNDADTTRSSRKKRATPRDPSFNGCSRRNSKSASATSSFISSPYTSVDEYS
Nature of the assay: [3H]SR142801 competition binding assay. The procedure, abridged:
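Ki derived by Cheng-Prusoff from Hill-fitted IC50 curves, duplicates, 10 μM SB222200 defining nonspecific binding. Radioligand used at KD concentration against compound at 0.0003-10 μM; transiently transfected HEK293 membranes, 5 μg/well, 75 min room temperature, Tris-HCl/MnCl2/phosphoramidon/BSA pH 7.4. Filter-bound counts read by scintillation.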

The mark [1] stands for this setting: [3H]SR142801, membranes of HEK293 cells transiently expressing recombinant human NK3 receptor, read-out: hNK3 Ki.
Setting [2] is: representative compounds, [3H]SR142801, HEK293 membranes, human NK3 receptor, read-out: Ki NK3 h.

`CC(CCN1CCC(N2CCCC2=O)CC1)(C(=O)NC1(c2ccccc2)CC1)c1ccc(Cl)c(Cl)c1` (centres unmarked) [Example 93, 2-(3,4-Dichlorophenyl)-2-methyl-4-[4-(2-oxo-pyrrolidin-1-yl)-piperidin-1-yl]-N-(1-phenyl-cyclopropyl)-butyramide]: the pKi under setting [1] was 6.73. `CC(CCN1CCC(N2CCCC2=O)CC1)(C(=O)NC(c1ccccc1)C(F)(F)F)c1ccc(Cl)c(Cl)c1` (centres unmarked) [Example 95, 2-(3,4-Dichloro-phenyl)-2-methyl-4-[4-(2-oxo-pyrrolidin-1-yl)-piperidin-1-yl]-N-(2,2,2-trifluoro-1-phenyl-ethyl)-butyramide]: the pKi under setting [1] was 8.33 and the pKi under setting [2] was 8.33. As for `CC(CCN1CCC(N2CCCC2=O)CC1)(C(=O)NC(c1ccc(F)cc1)C(F)(F)F)c1ccc(Cl)c(Cl)c1` (centres unmarked) [Example 96, 2-(3,4-Dichloro-phenyl)-2-methyl-4-[4-(2-oxo-pyrrolidin-1-yl)-piperidin-1-yl]-N-[2,2,2-trifluoro-1-(4-fluoro-phenyl)-ethyl]-butyramide], the pKi is, setting by setting: under setting [1], 8.14; under setting [2], 8.14.

As to `CC(CCN1CCC(N2CCCC2=O)CC1)(C(=O)NC(c1ccc(C(F)(F)F)cc1)C(F)(F)F)c1ccc(Cl)c(Cl)c1` (centres unmarked) [Example 97, 2-(3,4-Dichloro-phenyl)-2-methyl-4-[4-(2-oxo-pyrrolidin-1-yl)-piperidin-1-yl]-N-[2,2,2-trifluoro-1-(4-trifluoromethyl-phenyl)-ethyl]-butyramide], the pKi under setting [1] is 8.09. With `CC(=O)N(C)C1CCN(CCC(C)(C(=O)NCc2ccc(C(F)(F)F)c(F)c2)c2ccc(Cl)c(Cl)c2)CC1` (centres unmarked) [Example 99, 4-[4-(Acetyl-methyl-amino)-piperidin-1-yl]-2-(3,4-dichloro-phenyl)-N-(3-fluoro-4-trifluoromethyl-benzyl)-2-methyl-butyramide], the negative logarithm of the Ki (pKi) was 8.24 under setting [1] and 8.24 under setting [2]. Consider `CC(=O)N(C)C1CCN(CCC(C)(C(=O)N(C)Cc2ccc(Cl)c(Cl)c2)c2ccc(Cl)c(Cl)c2)CC1` (centres unmarked) [Example 100, 4-[4-(Acetyl-methyl-amino)-piperidin-1-yl]-N-(3,4-dichloro-benzyl)-2-(3,4-dichloro-phenyl)-2,N-dimethyl-butyramide], for which the pKi by setting is: under setting [1], 8.52; under setting [2], 8.52. Turning to `CC(=O)N(C)C1CCN(CCC(C)(C(=O)NCc2ccc(Cl)c(Cl)c2)c2ccc(Cl)c(Cl)c2)CC1` (centres unmarked) [Example 101, 4-[4-(Acetyl-methyl-amino)-piperidin-1-yl]-N-(3,4-dichloro-benzyl)-2-(3,4-dichloro-phenyl)-2-methyl-butyramide], the negative logarithm of the Ki (pKi) under setting [1] is 8.17 and the pKi under setting [2] was 8.17. As to `CC(=O)N(C)C1CCN(CCC(C)(C(=O)N(C)Cc2ccc(Cl)cc2)c2ccc(Cl)c(Cl)c2)CC1` (centres unmarked) [Example 102, 4-[4-(Acetyl-methyl-amino)-piperidin-1-yl]-N-(4-chloro-benzyl)-2-(3,4-dichloro-phenyl)-2,N-dimethyl-butyramide], the negative-log Ki (pKi) is, setting by setting: under setting [1], 8.29; under setting [2], 8.29. As for `CC(=O)N(C)C1CCN(CCC(C)(C(=O)N(C)Cc2ccc(Cl)c(C(F)(F)F)c2)c2ccc(Cl)c(Cl)c2)CC1` (centres unmarked) [Example 103, 4-[4-(Acetyl-methyl-amino)-piperidin-1-yl]-N-(4-chloro-3-trifluoromethyl-benzyl)-2-(3,4-dichloro-phenyl)-2,N-dimethyl-butyramide], the negative logarithm of the Ki (pKi) was 8.66 under setting [1] and 8.66 under setting [2].

Take `CC(=O)N(C)C1CCN(CCC(C)(C(=O)N(C)Cc2ccc(F)c(C(F)(F)F)c2)c2ccc(Cl)c(Cl)c2)CC1` (centres unmarked) [Example 104, 4-[4-(Acetyl-methyl-amino)-piperidin-1-yl]-2-(3,4-dichloro-phenyl)-N-(4-fluoro-3-trifluoromethyl-benzyl)-2,N-dimethyl-butyramide]: the pKi by setting is: under setting [1], 8.64; under setting [2], 8.64. On to `CC(=O)N(C)C1CCN(CCC(C)(C(=O)N(C)Cc2cccc(Cl)c2)c2ccc(Cl)c(Cl)c2)CC1` (centres unmarked) [Example 105, 4-[4-(Acetyl-methyl-amino)-piperidin-1-yl]-N-(3-chloro-benzyl)-2-(3,4-dichloro-phenyl)-2,N-dimethyl-butyramide], for which the pKi is 8.06 under setting [1] and 8.06 under setting [2]. As to `CC(=O)N(C)C1CCN(CCC(C)(C(=O)N(C)Cc2ccc(C(F)(F)F)cc2)c2ccc(Cl)c(Cl)c2)CC1` (centres unmarked) [Example 106, 4-[4-(Acetyl-methyl-amino)-piperidin-1-yl]-2-(3,4-dichloro-phenyl)-2,N-dimethyl-N-(4-trifluoromethyl-benzyl)-butyramide], the negative-log Ki (pKi) reads like this: under setting [1], 8.29; under setting [2], 8.29. For `CC(=O)N(C)C1CCN(CCC(C)(C(=O)N(C)Cc2ccc(C)cc2)c2ccc(Cl)c(Cl)c2)CC1` (centres unmarked) [Example 107, 4-[4-(Acetyl-methyl-amino)-piperidin-1-yl]-2-(3,4-dichloro-phenyl)-2,N-dimethyl-N-(4-methyl-benzyl)-butyramide], the pKi under setting [1] was 7.97. The same measure, in the same setting: for `CC(=O)N(C)C1CCN(CCC(C)(C(=O)N(C)Cc2ccccc2Cl)c2ccc(Cl)c(Cl)c2)CC1` (centres unmarked) [Example 108, 4-[4-(Acetyl-methyl-amino)-piperidin-1-yl]-N-(2-chloro-benzyl)-2-(3,4-dichloro-phenyl)-2,N-dimethyl-butyramide] the value was 7.92; for `CN(Cc1ccc(Cl)cc1)C(=O)C(CCN1CCC(N2CCCC2=O)CC1)c1ccc(F)cc1` (centres unmarked) [Example 111, N-(4-Chloro-benzyl)-2-(4-fluoro-phenyl)-N-methyl-4-[4-(2-oxo-pyrrolidin-1-yl)-piperidin-1-yl]-butyramide], 6.39.

For the compound `CN(Cc1ccc(Cl)cc1)C(=O)C(CCN1CCC(N2CCCC2=O)CC1)c1ccc(Cl)cc1Cl` (centres unmarked) [Example 112, N-(4-Chloro-benzyl)-2-(2,4-dichloro-phenyl)-N-methyl-4-[4-(2-oxo-pyrrolidin-1-yl)-piperidin-1-yl]-butyramide], the negative-log Ki (pKi) under setting [1] is 6.89. On to `COc1ccc(C(CCN2CCC(N3CCCC3=O)CC2)C(=O)N(C)Cc2ccc(Cl)cc2)cc1` (centres unmarked) [Example 113, N-(4-Chloro-benzyl)-2-(4-methoxy-phenyl)-N-methyl-4-[4-(2-oxo-pyrrolidin-1-yl)-piperidin-1-yl]-butyramide], for which the negative logarithm of the Ki (pKi) under setting [1] was 6.11. On to `CN(Cc1ccc(Cl)cc1)C(=O)C(CCN1CCC(N2CCCC2=O)CC1)c1ccccc1` (centres unmarked) [Example 114, N-(4-Chloro-benzyl)-N-methyl-4-[4-(2-oxo-pyrrolidin-1-yl)-piperidin-1-yl]-2-phenyl-butyramide], for which the negative logarithm of the Ki (pKi) under setting [1] was 6.25. As to `CN(Cc1ccc(Cl)cc1)C(=O)C(CCN1CCC(N2CCCC2=O)CC1)c1ccc(Cl)c(Cl)c1` (centres unmarked) [Example 115, N-(4-Chloro-benzyl)-2-(3,4-dichloro-phenyl)-N-methyl-4-[4-(2-oxo-pyrrolidin-1-yl)-piperidin-1-yl]-butyramide], the pKi was 8.09 under setting [1] and 8.09 under setting [2].

Consider `CN(Cc1ccc(Cl)cc1)C(=O)C(CCN1CCC(N2CCCC2=O)CC1)c1ccc(F)c(F)c1` (centres unmarked) [Example 116, N-(4-Chloro-benzyl)-2-(3,4-difluoro-phenyl)-N-methyl-4-[4-(2-oxo-pyrrolidin-1-yl)-piperidin-1-yl]-butyramide], for which the pKi under setting [1] was 6.70. For `CN(Cc1ccc(Cl)cc1)C(=O)C(CCN1CCC(N2CCCC2=O)CC1)c1ccc(Cl)nc1` (centres unmarked) [Example 117, N-(4-Chloro-benzyl)-2-(6-chloro-pyridin-3-yl)-N-methyl-4-[4-(2-oxo-pyrrolidin-1-yl)-piperidin-1-yl]-butyramide], the negative-log Ki (pKi) under setting [1] was 6.41.

Usually pKi stands for the Ki on a negative log10 scale, so that one unit is a factor of ten.
